# According to patent publication US20170009266A1, “PROCESS FOR THE ATTACHMENT OF A GALNAC MOIETY COMPRISING A (HETERO)ARYL GROUP TO A GLCNAC MOIETY, AND PRODUCT OBTAINED THEREBY” (SYNAFFIX B.V., priority 2014, published 2017):
# Biological target: T1, β(1,4)-Gal-T1(Y289L) (Bos taurus, UniProt P08037, I205M/L206V/P187L/V158I/Y289L)
# T1 construct: made in house; host or cells: E. coli
# T1 sequence (P08037 1-402 V158I/P187L/I205M/L206V/Y289L): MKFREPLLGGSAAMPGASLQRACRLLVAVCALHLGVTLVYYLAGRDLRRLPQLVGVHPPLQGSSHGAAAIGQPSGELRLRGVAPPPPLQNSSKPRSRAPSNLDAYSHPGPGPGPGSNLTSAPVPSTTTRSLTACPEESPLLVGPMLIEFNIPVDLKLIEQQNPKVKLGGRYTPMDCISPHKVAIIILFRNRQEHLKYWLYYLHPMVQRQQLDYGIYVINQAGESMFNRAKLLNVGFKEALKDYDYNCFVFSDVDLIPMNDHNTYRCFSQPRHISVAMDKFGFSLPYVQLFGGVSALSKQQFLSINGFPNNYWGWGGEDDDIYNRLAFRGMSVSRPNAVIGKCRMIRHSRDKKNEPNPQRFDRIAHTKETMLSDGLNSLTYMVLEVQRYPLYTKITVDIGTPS
# Assay: Glycosyltransfer of UDP-galactosamine derivatives to trimmed trastuzumab with Gal-T1(Y289L) expressed in E. coli, mass spectral analysis
# Assay type: biochemical, bovine
# Settings: trimmed trastuzumab 10 mg/mL; UDP derivative 7 mM; enzyme 2 mg/mL; pH 8.0, 30° C. overnight; reduced sample
# Method: General Protocol for Glycosyltransfer of Galactose Derivative UDP-GalNAz 21-24 with Gal-T1(Y289L) (Expressed in E. coli).
# Enzymatic introduction of UDP-Gal derivatives 21-24 onto deglycosylated trastuzumab was effected with a mutant of bovine β(1,4)-galactosyltransferase [β(1,4)-Gal-T1(Y289L)] (expressed in E. coli). The deglycosylated trastuzumab (10 mg/mL) was incubated with the appropriate UDP-galactose derivative (0.4 mM) and β(1,4)-Gal-T1(Y289L) (1 mg/mL) in 10 mM MnCl2 and 25 mM Tris-HCl pH 8.0 for 16 hours at 30° C.
# Next, the functionalized trastuzumab was incubated with protein A agarose (40 μL per mg IgG) for 2 hours at 4° C. The protein A agarose was washed three times with PBS and the IgG was eluted with 100 mM glycine-HCl pH 2.7. The eluted IgG was neutralized with 1 M Tris-HCl pH 8.0 and concentrated and washed with PBS using an Amicon Ultra-0.5, Ultracel-10 Membrane (Millipore) to a concentration of 15-20 mg/mL.
# Trimmed trastuzumab (10 mg/mL, 3.3 nmol), obtained by Endo S treatment of trastuzumab, was incubated with UDP-galactosamine variant 21 (2.5 mM) and β(1,4)-Gal-T1(Y289L) (0.68 mg/mL, 45 μL) in 10 mM MnCl2 and 25 mM Tris-HCl pH 8.0 at 30° C. overnight.
# Trimmed trastuzumab (10 mg/mL, 1.3 nmol), obtained by Endo S treatment of trastuzumab, was incubated with UDP-galactosamine variant 22 (4 mM) and β(1,4)-Gal-T1(Y289L) (1.4 mg/mL, 10 μL) in 10 mM MnCl2 and 25 mM Tris-HCl pH 8.0 at 30° C. overnight. Mass spectral analysis of the reduced sample indicated the formation of the product (49750.9 Da, approximately 80% of total heavy chain), resulting from galactosamide furan-2-carboxyl acid transfer to core GlcNAc(Fuc) substituted trastuzumab heavy chain as shown in FIG. 9.
# Trimmed trastuzumab (10 mg/mL, 6.6 nmol), obtained by Endo S treatment of trastuzumab, was incubated with the 4-azido-3,5-difluorobenzoyl derivative of UDP-galactosamine (23, 7 mM) and β(1,4)-Gal-T1(Y289L) (2 mg/mL) in 10 mM MnCl2 and 25 mM Tris-HCl pH 8.0 at 30° C. overnight. Mass spectral analysis of the reduced sample indicated the formation of a one major product (49813 Da, approximately 90% of total heavy chain), resulting from transfer of 23 to core GlcNAc(Fuc)-substituted trastuzumab heavy chain.
# Trimmed trastuzumab (10 mg/mL, 1.3 nmol), obtained by Endo S treatment of trastuzumab, was incubated with UDP-galactosamine variant 24 (4 mM) and (3(1,4)-Gal-T1(Y289L) (1.4 mg/mL, 10 μL) in 10 mM MnCl2 and 25 mM Tris-HCl pH 8.0 at 30° C. overnight.
compound,measurement,value
"[N-]=[N+]=Nc1c(F)cc(C(=O)N[C@H]2[C@@H](OP(=O)(O)OP(=O)(O)OC[C@H]3O[C@@H](n4ccc(=O)[nH]c4=O)[C@H](O)[C@@H]3O)O[C@H](CO)[C@H](O)[C@@H]2O)cc1F [Compound 23, 4-azido-3,5-difluorobenzoyl Derivative of UDP-GalNH2]","product, % of total heavy chain",approximately 90%
